Assay results: ChEMBL document CHEMBL1201862, “PubChem BioAssay data set” (2004)
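Step 1: Grow cells in 96-well plates. Step 2: Expose to compound for 48 hours at 5 concentrations. Step 3: Interpolate endpoints linearly; if unreached, use highest concentration. GI50: concentration for 50% inhibition of growth.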 Calls of active or inactive are those of the source. No stated cut-off is given here; in the data, active = GI50 up to about 1.1 µM and inactive = higher.

Tests used:
Experiment in all cases: NCI anticancer screen, dose series, 48 h
XF498 = tested on: XF498
DMS-273 = tested on: DMS-273
KM-20L2 = tested on: KM-20L2
M19-MEL = tested on: M19-MEL
HOP-18 = tested on: HOP-18
BT-549 = tested on: BT-549
LXFL 529 = tested on: LXFL 529

O=C1C2=C(C3=NCCc4c[nH]c1c43)C1(C=C(Br)C(O)C(Br)=C1)CCN2 (centres undefined)
GI50 (XF498): 7.67 µM (inactive) | GI50 (DMS-273): 1.03 µM (active) | GI50 (KM-20L2): 0.317 µM (active) | GI50 (M19-MEL): 0.38 µM (active) | GI50 (HOP-18): 10.7 µM (inactive)

CNC(=O)SCC(NC(=O)CCC(N)C(=O)O)C(=O)NCC(=O)O (centres undefined)
GI50 (XF498): > 100 µM (inactive) | GI50 (DMS-273): > 83.9 µM (inactive) | GI50 (KM-20L2): > 100 µM (inactive) | GI50 (M19-MEL): > 100 µM (inactive) | GI50 (HOP-18): > 82.2 µM (inactive)

CC(C)=CCc1c(C)cc2cc3c(c(O)c2c1O)C(=O)C=C(O)C3(CC=C(C)C)C/C=C(\C)CO (centres undefined)
GI50 (XF498): 16.4 µM (inactive) | GI50 (DMS-273): 52.8 µM (inactive) | GI50 (KM-20L2): 39.9 µM (inactive) | GI50 (M19-MEL): 37.4 µM (inactive) | GI50 (HOP-18): 3.61 µM (inactive)

CC(=O)OC/C=C\Cn1nc(Br)c(=O)[nH]c1=O
GI50 (BT-549): 9.77 µM (inactive)

O=C1c2ccccc2C(=O)N1CC(CN1C(=O)c2ccccc2C1=O)(C(=O)OCc1ccccc1)C(=O)OCc1ccccc1
GI50 (BT-549): > 100 µM (inactive)

C=CCN1C(=O)/C(=C/c2cccs2)N=C1SC1OC(COC(=O)c2ccccc2)C(OC(=O)c2ccccc2)C1OC(=O)c1ccccc1 (centres undefined)
GI50 (BT-549): > 100 µM (inactive)

NC(=O)Nc1ccc(C(=O)NCCCNC(=O)c2ccc(NC(N)=O)cc2)cc1
GI50 (BT-549): > 100 µM (inactive)

O=C1C=C(N2CC2)C(=O)C=C1N1CC1
GI50 (BT-549): 0.348 µM (active) | GI50 (XF498): 0.105 µM (active) | GI50 (DMS-273): 0.0617 µM (active) | GI50 (LXFL 529): 0.159 µM (active) | GI50 (KM-20L2): 0.354 µM (active)
